Tested on: shunt pathway
Assay: Test Code 036 (C-Shunt inhibitor): lysis of fragile human erythrocytes in autologous serum via shunt pathway activated by cobra venom factor
Format: cell-based
Settings: appropriate dilutions of test compound
From the text: An active inhibitor protects C2 from C1 and C4; (ii) Test, Code 035 (c3-C9 inhibitor) -- This test determines the ability of the late components of human complement (C3-C9) to lyse EAC 142 in the presence of appropriate dilutions of the test compound. An active inhibitor protects EAC 142 from lysis by human C3-C9; (iii) Test, Code 036 (C-Shunt inhibitor) -- In this test human erythrocytes rendered fragile are lysed in autologous serum via the shunt pathway activated by cobra venom factor in the presence of appropriate dilutions of the test compound. Inhibition of the shunt pathway results in failure of lysis; (iv) Forssman Vasculitis Test -- Here, the well known complement dependent lesion, Forssman vasculitis, is produced in guinea pigs by intradermal injection of rabbit anti-Forssman antiserum. […]

O=C(N[C@H]1C(OS(=O)(=O)O)O[C@H](COS(=O)(=O)O)[C@@H](OS(=O)(=O)O)[C@@H]1OS(=O)(=O)O)c1cc(C(=O)N[C@H]2C(OS(=O)(=O)O)O[C@H](COS(=O)(=O)O)[C@@H](OS(=O)(=O)O)[C@@H]2OS(=O)(=O)O)cc(C(=O)N[C@H]2C(OS(=O)(=O)O)O[C@H](COS(=O)(=O)O)[C@@H](OS(=O)(=O)O)[C@@H]2OS(=O)(=O)O)c1 (stereo partly drawn) [2,2',2"-[s-Phenenyltris(carbonylimino)]tris-2-deoxy-D-glucopyranose dodecakis (H-sulfate) dodecasalt with trimethylamine]
Shunt Inhibition 036 Wells: +3 Wells

From patent US4120954A, “2,2',2"-[S-Phenenyltris(carbonylimino) ]tris-2-deoxy-D-glucopyranose and salts thereof” (American Cyanamid Company, priority 1977, dated 1978)
